Source: ChEMBL document CHEMBL6083257, “Discovery of small molecules for autophagy-lysosome degradation of immune checkpoint proteins” (Eur J Med Chem, 2024)
Activity calls are given as the source filed them. The rule behind the calls is not given here.

How the values were obtained:
[1] = biological target: Programmed cell death protein 1/Programmed cell death 1 ligand 1 (Homo sapiens, UniProt Q15116+Q9NZQ7); test: Inhibition of PD-1/PD-L1 interaction (unknown origin) incubated for 90 min by TR-FRET assay; assay type: protein-complex assay
[2] = system: RKO; test: Upregulation of autophagy lysosome related Atg9b gene expression in human RKO cells at 5 uM incubated for 24 hrs by qRT-PCR analysis; assay type: functional, cell-based
[3] = system: RKO; test: Upregulation of autophagy lysosome related Mitf gene expression in human RKO cells at 5 uM incubated for 24 hrs by qRT-PCR analysis; assay type: functional, cell-based
[4] = system: RKO; test: Upregulation of autophagy lysosome related Lamp1 gene expression in human RKO cells at 5 uM incubated for 24 hrs by qRT-PCR analysis; assay type: functional, cell-based
[5] = system: HepG2; test: Induction of VISTA degradation in human HepG2 cells assessed as decrease in VISTA protein level at 5 uM using ECL as substrate incubated for 1 hrs by immunoblot analysis; assay type: cell-based
[6] = system: RKO; test: AUTAC (autophagy-targeting chimera) activity at PD-L1 in human RKO cells assessed as autophagy-lysosome mediated protein degradation by measuring protein level at 4 uM measured after 24 hrs by ECL substrate based Western blotting analysis relative to control; assay type: cell-based
[7] = system: RKO; test: AUTAC (autophagy-targeting chimera) activity at PD-L1 in human RKO cells assessed as autophagy-lysosome mediated protein degradation by measuring protein level at 0.5 uM measured after 24 hrs by ECL substrate based Western blotting analysis relative to control; assay type: cell-based
[8] = system: RKO; test: AUTAC (autophagy-targeting chimera) activity at PD-L1 in human RKO cells assessed as autophagy-lysosome mediated protein degradation measured after 24 hrs by ECL substrate based Western blotting analysis; assay type: cell-based; settings: dose 0.5-2 µM
[9] = system: RKO; test: AUTAC (autophagy-targeting chimera) activity at PD-L1 in human RKO cells assessed as autophagy-lysosome mediated protein degradation by measuring protein level at 2 uM measured after 24 hrs by ECL substrate based Western blotting analysis relative to control; assay type: cell-based
[10] = Toxicity in male BALB/c mouse model mouse implanted in CT26 cells assessed as body weight loss at 120 mg/kg, po; assay type: organism-based; settings: in vivo
[11] = system: CT26; test: In vivo antitumor activity against mouse CT26 cells implanted in male BALB/c mouse model assessed reduced tumor growth oral administration once daily; assay type: functional, organism-based; settings: dose 30-120 mg/kg
[12] = system: RKO; test: AUTAC (autophagy-targeting chimera ) activity in autophagy-lysosome mediated PD-L1 degradation in human RKO cells assessed as PD-L1 degradation at 0.5 uM using ECL as substrate incubated for 24 hrs in presence of Cycloheximide by immunoblot analysis; assay type: cell-based
[13] = system: CT26; test: In vivo antitumor activity against mouse CT26 cells implanted in male BALB/c mouse model assessed as decrease PD-L1 in tumor tissue at 120 mg/kg, po incubated for overnight by immunohistochemistry; assay type: functional, organism-based
[14] = system: CT26; test: In vivo antitumor activity against mouse CT26 cells implanted in male BALB/c mouse model assessed reduced tumor growth at 60 mg/kg oral administration once daily; assay type: functional, organism-based
[15] = system: RKO; test: Induction of autophagosome lysosome fusion in human RKO cells transfected with Ad-mCherry-GFP-LC3B incubated for 24 hrs by inverted fluorescence microscope analysis; assay type: functional, cell-based
[16] = system: RKO; test: Induction of autophagy in human RKO cells assessed as increase LC3II expression at 1 uM incubated for 24 hrs in presence of 3-methyladenine by immunoblot analysis; assay type: functional, cell-based
[17] = system: RKO; test: AUTAC (autophagy-targeting chimera ) activity in autophagy-lysosome mediated PD-L1 degradation in human RKO cells assessed as PD-L1 degradation at 0.5 uM using ECL as substrate incubated for 24 hrs in presence of 3-methyladenine by immunoblot analysis; assay type: cell-based
[18] = system: CT26; test: Antitumor immunity against mouse CT26 cells implanted in male BALB/c mouse model assessed as increase infiltration of CD8+ cells at 30 to 120 mg/kg, po; assay type: functional, organism-based; settings: dose 30-120 mg/kg
[19] = system: RKO; test: AUTAC (autophagy-targeting chimera ) activity in autophagy-lysosome mediated PD-L1 degradation in human RKO cells assessed as PD-L1 degradation at 50 uM using ECL as substrate incubated for 24 hrs in presence of chloroquine by immunoblot analysis; assay type: cell-based
[20] = system: RKO; test: AUTAC (autophagy-targeting chimera) activity at PD-L1 in human RKO cells assessed as autophagy-lysosome mediated protein degradation by measuring reduced PD-L1 level at 1 uM incubated for 24 hrs by ECL substrate based Western blotting analysis relative to control; assay type: cell-based; design: scale not given: the % may be the effect or the level left
[21] = system: RKO; test: AUTAC (autophagy-targeting chimera ) activity in autophagy-lysosome mediated PD-L1 degradation in human RKO cells assessed as PD-L1 degradation at 10 uM using ECL as substrate incubated for 24 hrs in presence of pepstainA by immunoblot analysis; assay type: cell-based
[22] = system: RKO; test: AUTAC (autophagy-targeting chimera) activity at PD-L1 in human RKO cells assessed as autophagy-lysosome mediated protein degradation by measuring reduced PD-L1 level at 0.5 uM incubated for 24 hrs by ECL substrate based Western blotting analysis relative to control; assay type: cell-based; design: scale not given: the % may be the effect or the level left
[23] = Toxicity in male BALB/c mouse model mouse implanted in CT26 cells assessed as mortality at 120 mg/kg, po; assay type: organism-based; settings: in vivo
[24] = system: RKO; test: AUTAC (autophagy-targeting chimera) activity at PD-L1 in human RKO cells assessed as autophagy-lysosome mediated protein degradation at 2 uM measured after 24 hrs by ECL substrate based Western blotting analysis; assay type: cell-based
[25] = system: RKO; test: AUTAC (autophagy-targeting chimera) activity at PD-L1 in human RKO cells assessed as autophagy-lysosome mediated protein degradation at 4 uM measured after 24 hrs by ECL substrate based Western blotting analysis; assay type: cell-based
[26] = system: RKO; test: AUTAC (autophagy-targeting chimera) activity at PD-L1 in human RKO cells assessed as autophagy-lysosome mediated protein degradation by measuring protein level at 1 uM measured after 24 hrs by ECL substrate based Western blotting analysis relative to control; assay type: cell-based
[27] = system: RKO; test: AUTAC (autophagy-targeting chimera) activity at PD-L1 in human RKO cells assessed as autophagy-lysosome mediated protein degradation at 1 uM measured after 24 hrs by ECL substrate based Western blotting analysis; assay type: cell-based
[28] = system: HepG2; test: Induction of VISTA degradation in human HepG2 cells assessed as decrease in VISTA protein level at 5 uM using ECL as substrate incubated for 1 hrs by immunoblot analysis relative to control; assay type: cell-based; design: scale not given: the % may be the effect or the level left

Sequence of Programmed cell death protein 1/Programmed cell death 1 ligand 1 (Q15116 whole entry): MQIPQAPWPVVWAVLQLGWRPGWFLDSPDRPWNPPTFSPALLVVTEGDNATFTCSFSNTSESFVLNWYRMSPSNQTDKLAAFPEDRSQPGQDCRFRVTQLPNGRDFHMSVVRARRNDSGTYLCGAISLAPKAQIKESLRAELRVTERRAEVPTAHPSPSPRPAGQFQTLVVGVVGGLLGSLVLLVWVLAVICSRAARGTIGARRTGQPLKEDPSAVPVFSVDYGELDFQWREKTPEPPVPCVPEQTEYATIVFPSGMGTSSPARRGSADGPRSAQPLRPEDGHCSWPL
Sequence of Programmed cell death protein 1/Programmed cell death 1 ligand 1 (Q9NZQ7 whole entry): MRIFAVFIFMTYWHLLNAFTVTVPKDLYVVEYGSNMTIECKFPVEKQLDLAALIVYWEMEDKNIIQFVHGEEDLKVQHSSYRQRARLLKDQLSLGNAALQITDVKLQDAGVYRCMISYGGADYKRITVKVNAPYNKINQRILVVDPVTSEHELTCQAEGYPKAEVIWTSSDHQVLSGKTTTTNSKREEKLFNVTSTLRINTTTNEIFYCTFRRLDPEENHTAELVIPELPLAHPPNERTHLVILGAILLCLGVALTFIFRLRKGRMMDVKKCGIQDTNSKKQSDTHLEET

Cc1c(-c2ccccc2)cccc1-c1nnc(Nc2cccc(CNCCOCCOCCNCc3cccc(Nc4nnc(-c5ccccc5)o4)c3)c2)o1
IC50 [1]: 0.0306 µM

OCCNCc1cccc(Nc2nnc(-c3ccccc3)o2)c1
IC50 [1]: > 1 µM | Activity [2]: Active | Activity [3]: Active | Activity [4]: Active

Cc1c(-c2ccccc2)cccc1-c1nnc(Nc2cccc(CNCCOCCNCc3cccc(Nc4nnc(-c5cccc(-c6ccccc6)c5C)o4)c3)c2)o1
IC50 [1]: 0.0394 µM

CNc1cccc(CNCCO)c1
IC50 [1]: > 1 µM | Activity [2]: Active | Activity [3]: Active | Activity [4]: Active

Cc1c(-c2ccccc2)cccc1-c1nnc(Nc2cccc(CNCCOCCOCCOCCOCCNCc3cccc(-c4nc5ccc(-c6ccccc6)c(C)c5[nH]4)c3)c2)o1
Activity [5]: Active

CNc1cccc(CNCCOCCOCCOCCNCc2cccc(Nc3nnc(-c4cccc(-c5ccccc5)c4C)o3)c2)c1
Activity [6]: 28% | IC50 [1]: 0.0223 µM | Activity [7]: 93% | Activity [8]: Dose-dependent-effect | Activity [9]: 33%

Cc1c(-c2ccccc2)cccc1-c1nnc(Nc2cccc(CNCCOCCOCCOCCOCCNCc3cccc(Nc4nnc(-c5ccccc5)o4)c3)c2)o1
IC50 [1]: 0.0228 µM | Activity [10]: Non-toxic | Activity [11]: Dose-dependent-effect | Activity [12]: Active | Activity [13]: Active | Activity [8]: Dose-dependent-effect | Activity [14]: Active | Activity [15]: Active | Activity [16]: Active | Activity [17]: Active | Activity [18]: Active | Activity [19]: Active | Activity [20]: 90% | Activity [21]: Active | Activity [22]: 70% | Activity [23]: Non-toxic

Cc1c(-c2ccccc2)cccc1-c1nnc(Nc2cccc(CNCCOCCOCCOCCOCCOCCNCc3cccc(Nc4nnc(-c5ccccc5)o4)c3)c2)o1
IC50 [1]: 0.023 µM

Cc1c(-c2ccccc2)cccc1-c1nnc(Nc2cccc(CNCCOCCOCCOCCNCc3cccc(Nc4nnc(-c5cccc(-c6ccccc6)c5C)o4)c3)c2)o1
IC50 [1]: 0.0246 µM | Activity [8]: Dose-dependent-effect | Activity [24]: Active

Cc1c(-c2ccccc2)cccc1-c1nnc(Nc2cccc(CNCCOCCOCCNCc3cccc(Nc4nnc(-c5cccc(-c6ccccc6)c5C)o4)c3)c2)o1
IC50 [1]: 0.0257 µM

Cc1c(-c2ccccc2)cccc1-c1nnc(Nc2cccc(CNCCOCCOCCOCCNCc3cccc(-c4nc5ccc(-c6ccccc6)c(C)c5[nH]4)c3)c2)o1
Activity [5]: Active

Cc1c(-c2ccccc2)cccc1-c1nnc(Nc2cccc(CNCCOCCOCCOCCNCc3cccc(Nc4nnc(-c5ccccc5)o4)c3)c2)o1
Activity [6]: 4% | IC50 [1]: 0.0284 µM | Activity [25]: Active | Activity [7]: 90% | Activity [8]: Dose-dependent-effect | Activity [26]: 72% | Activity [27]: Active | Activity [9]: 44%

Cc1c(-c2ccccc2)ccc2nc(-c3cccc(CNCCOCCOCCOCCNCc4cccc(Nc5nnc(-c6ccccc6)o5)c4)c3)[nH]c12
Activity [5]: Active | Activity [28]: 89%

Cc1c(-c2ccccc2)ccc2nc(-c3cccc(CNCCOCCOCCOCCOCCNCc4cccc(Nc5nnc(-c6ccccc6)o5)c4)c3)[nH]c12
Activity [5]: Active | Activity [28]: 87%
